How the values were obtained:
Assay type in all cases: in vivo
[1] = system: velvetleaf (Abutilon theophrasti, ABUTH); experiment: Post-emerge test, greenhouse herbicide activity screening; details: phytotoxicity rating 0-100 (0 no damage, 100 complete death), 14 days after application
How it was run: (§1)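 Herbicidal damage is scored 0 (none) to 100 (complete plant death) two weeks after a simulated field spray. Rates span 15–1000 g ai/ha, delivered in acetone at 187 l/ha. For post-emergence treatments, plants have 2–3 leaves and the spray carries 0.25% v/v non-ionic surfactant.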

[2] = system: ivyleaf morningglory (Ipomoea hederacea, IPOHE); experiment: as above; details: phytotoxicity rating 0-100 (0 no damage, 100 complete death), 14 days after application
How it was run: as §1

[3] = system: lambsquarters (Chenopodium album, CHEAL); experiment: as above; details: phytotoxicity rating 0-100 (0 no damage, 100 complete death), 14 days after application
How it was run: as §1

[4] = system: large crabgrass (Digitaria sanguinalis, DIGSA); experiment: as above; details: phytotoxicity rating 0-100 (0 no damage, 100 complete death), 14 days after application
How it was run: as §1

[5] = system: johnsongrass (Sorghum halepense, SORHA); experiment: as above; details: phytotoxicity rating 0-100 (0 no damage, 100 complete death), 14 days after application
How it was run: as §1

[6] = system: barnyardgrass (Echinochloa crus-galli, ECHCG); experiment: as above; details: phytotoxicity rating 0-100 (0 no damage, 100 complete death), 14 days after application
How it was run: as §1

[7] = system: sicklepod (Cassia obtusifolia, CASOB); experiment: as above; details: phytotoxicity rating 0-100 (0 no damage, 100 complete death), 14 days after application
How it was run: as §1

[8] = system: green foxtail (Setaria viridis, SETVI); experiment: as above; details: phytotoxicity rating 0-100 (0 no damage, 100 complete death), 14 days after application
How it was run: as §1

[9] = system: redroot pigweed (Amaranthus retroflexus, AMARE); experiment: as above; details: phytotoxicity rating 0-100 (0 no damage, 100 complete death), 14 days after application
How it was run: as §1

[10] = system: redroot pigweed (Amaranthus retroflexus, AMARE); experiment: Pre-emerge test, greenhouse herbicide activity screening; details: pre-emerge, rated 14 days after application, 0 = no damage, 100 = complete death
How it was run: (§2)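 Visual ratings on a 0-100 scale (0 no damage, 100 all plants dead) were taken at 14 days after treatment. Rates of 15-1000 g ai/ha in acetone, 187 l/ha, were sprayed onto soil one day after planting (pre-emerge) or onto 2-3 leaf plants with 0.25% v/v surfactant (post-emerge).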

[11] = system: upland rice (Oryza sp., var. Tebonnet, RICE); experiment: Pre-emerge test, crop safety; details: pre-emerge, rated 14 days after application, 0 = no damage, 100 = complete death
How it was run: as §2

[12] = system: field corn (Zea mays L., var. Dekalb 535, CORN); experiment: Pre-emerge test, crop safety; details: pre-emerge, rated 14 days after application, 0 = no damage, 100 = complete death
How it was run: as §2

[13] = system: velvetleaf (Abutilon theophrasti, ABUTH); experiment: Pre-emerge test, greenhouse herbicide activity screening; details: pre-emerge, rated 14 days after application, 0 = no damage, 100 = complete death
How it was run: (§3)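 Compounds in acetone were track-sprayed at 15–1000 g ai/ha: pre-emergence onto soil sown the previous day, then top-watered to incorporate and later bottom-watered; post-emergence onto 2–3 leaf plants with 0.25% v/v surfactant, bottom-watered only. Ratings on a 0–100 phytotoxicity scale were taken at day 14.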

[14] = system: ivyleaf morningglory (Ipomoea hederacea, IPOHE); experiment: as above; details: pre-emerge, rated 14 days after application, 0 = no damage, 100 = complete death
How it was run: as §3

[15] = system: lambsquarters (Chenopodium album, CHEAL); experiment: as above; details: pre-emerge, rated 14 days after application, 0 = no damage, 100 = complete death
How it was run: as §3

[16] = system: large crabgrass (Digitaria sanguinalis, DIGSA); experiment: as above; details: pre-emerge, rated 14 days after application, 0 = no damage, 100 = complete death
How it was run: as §3

[17] = system: johnsongrass (Sorghum halepense, SORHA); experiment: as above; details: pre-emerge, rated 14 days after application, 0 = no damage, 100 = complete death
How it was run: as §3

[18] = system: barnyardgrass (Echinochloa crus-galli, ECHCG); experiment: as above; details: pre-emerge, rated 14 days after application, 0 = no damage, 100 = complete death
How it was run: as §3

[19] = system: sicklepod (Cassia obtusifolia, CASOB); experiment: as above; details: pre-emerge, rated 14 days after application, 0 = no damage, 100 = complete death
How it was run: as §3

[20] = system: green foxtail (Setaria viridis, SETVI); experiment: as above; details: pre-emerge, rated 14 days after application, 0 = no damage, 100 = complete death
How it was run: as §3

[21] = system: upland rice (Oryza sp., var. Tebonnet, RICE); experiment: Post-emerge test, crop safety; details: phytotoxicity rating 0-100 (0 no damage, 100 complete death), 14 days after application
How it was run: (§4)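 Rating: 0–100 visual injury, 14 DAA. Application: acetone, 187 l/ha, 15–1000 g ai/ha, flat-fan track sprayer with nozzle 40–45 cm above soil or canopy. Post-emerge runs used 0.25% v/v surfactant on 2–3 leaf plants.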

[22] = system: field corn (Zea mays L., var. Dekalb 535, CORN); experiment: Post-emerge test, crop safety; details: phytotoxicity rating 0-100 (0 no damage, 100 complete death), 14 days after application
How it was run: as §4

## COc1c(Cl)cc(F)c(-n2c(=O)cc(C(F)(F)F)n(C)c2=O)c1NC(=O)C(C)(C)C [2-3]
[1]; 63 g ai/ha
  Post-emerge Herbicidal Activity ABUTH: 80
[1]; 250 g ai/ha
  Post-emerge Herbicidal Activity ABUTH: 100
[2]; 63 g ai/ha
  Post-emerge Herbicidal Activity IPOHE: 60
[2]; 250 g ai/ha
  Post-emerge Herbicidal Activity IPOHE: 100
[3]; 63 g ai/ha
  Post-emerge Herbicidal Activity CHEAL: 30
[3]; 250 g ai/ha
  Post-emerge Herbicidal Activity CHEAL: 30
[4]; 63 g ai/ha
  Post-emerge Herbicidal Activity DIGSA: 0
[4]; 250 g ai/ha
  Post-emerge Herbicidal Activity DIGSA: 0
[5]; 63 g ai/ha
  Post-emerge Herbicidal Activity SORHA: 0
[5]; 250 g ai/ha
  Post-emerge Herbicidal Activity SORHA: 0
[6]; 63 g ai/ha
  Post-emerge Herbicidal Activity ECHCG: 0
[6]; 250 g ai/ha
  Post-emerge Herbicidal Activity ECHCG: 0
[7]; 63 g ai/ha
  Post-emerge Herbicidal Activity CASOB: 0
[7]; 250 g ai/ha
  Post-emerge Herbicidal Activity CASOB: 0
[8]; 63 g ai/ha
  Post-emerge Herbicidal Activity SETVI: 0
[8]; 250 g ai/ha
  Post-emerge Herbicidal Activity SETVI: 0
[9]; 63 g ai/ha
  Post-emerge Herbicidal Activity AMARE: 10
[9]; 250 g ai/ha
  Post-emerge Herbicidal Activity AMARE: 40
[10]; 63 g ai/ha
  Pre-emerge Herbicidal Activity AMARE (phytotoxicity rating, scale 0-100): 100
[10]; 250 g ai/ha
  Pre-emerge Herbicidal Activity AMARE (phytotoxicity rating, scale 0-100): 100
[11]; 63 g ai/ha
  Pre-emerge crop damage RICE (phytotoxicity rating, scale 0-100): 20
[11]; 250 g ai/ha
  Pre-emerge crop damage RICE (phytotoxicity rating, scale 0-100): 50
[12]; 63 g ai/ha
  Pre-emerge crop damage CORN (phytotoxicity rating, scale 0-100): 0
[12]; 250 g ai/ha
  Pre-emerge crop damage CORN (phytotoxicity rating, scale 0-100): 30
[13]; 63 g ai/ha
  Pre-emerge Herbicidal Activity ABUTH (phytotoxicity rating, scale 0-100): 100
[13]; 250 g ai/ha
  Pre-emerge Herbicidal Activity ABUTH (phytotoxicity rating, scale 0-100): 100
[14]; 63 g ai/ha
  Pre-emerge Herbicidal Activity IPOHE (phytotoxicity rating, scale 0-100): 60
[14]; 250 g ai/ha
  Pre-emerge Herbicidal Activity IPOHE (phytotoxicity rating, scale 0-100): 100
[15]; 63 g ai/ha
  Pre-emerge Herbicidal Activity CHEAL (phytotoxicity rating, scale 0-100): 100
[15]; 250 g ai/ha
  Pre-emerge Herbicidal Activity CHEAL (phytotoxicity rating, scale 0-100): 100
[16]; 63 g ai/ha
  Pre-emerge Herbicidal Activity DIGSA (phytotoxicity rating, scale 0-100): 30
[16]; 250 g ai/ha
  Pre-emerge Herbicidal Activity DIGSA (phytotoxicity rating, scale 0-100): 60
[17]; 63 g ai/ha
  Pre-emerge Herbicidal Activity SORHA (phytotoxicity rating, scale 0-100): 10
[17]; 250 g ai/ha
  Pre-emerge Herbicidal Activity SORHA (phytotoxicity rating, scale 0-100): 30
[18]; 63 g ai/ha
  Pre-emerge Herbicidal Activity ECHCG (phytotoxicity rating, scale 0-100): 0
[18]; 250 g ai/ha
  Pre-emerge Herbicidal Activity ECHCG (phytotoxicity rating, scale 0-100): 40
[19]; 63 g ai/ha
  Pre-emerge Herbicidal Activity CASOB (phytotoxicity rating, scale 0-100): 60
[19]; 250 g ai/ha
  Pre-emerge Herbicidal Activity CASOB (phytotoxicity rating, scale 0-100): 100
[20]; 63 g ai/ha
  Pre-emerge Herbicidal Activity SETVI (phytotoxicity rating, scale 0-100): 90
[20]; 250 g ai/ha
  Pre-emerge Herbicidal Activity SETVI (phytotoxicity rating, scale 0-100): 100
[21]; 63 g ai/ha
  Post-emerge Herbicidal Activity RICE (crop damage): 0
[21]; 250 g ai/ha
  Post-emerge Herbicidal Activity RICE (crop damage): 40
[22]; 63 g ai/ha
  Post-emerge Herbicidal Activity CORN (crop damage): 0
[22]; 250 g ai/ha
  Post-emerge Herbicidal Activity CORN (crop damage): 10
